# Source: the OligoGym collection
# “And” between values parts separate entries of the source, which are not always exact repeats. Equal values may be shown once. After the bases stand the sugars from the 5' end (letter, count) and the backbone: PS all phosphorothioate, else s phosphorothioate and o phosphodiester by linkage. Methylation of C is not given here. e = 2'-O-(2-methoxyethyl) (MOE); d = 2'-deoxy (DNA)
# Biological target: DGAT2
# Settings: ASO
Sequence,"target mRNA inhibition (HepG2, 2.5 µM)","target mRNA inhibition (HepG2, 10 µM)","target mRNA inhibition (HepG2, 0.12 µM) [%]","target mRNA inhibition (HepG2, 20 µM) [%]"
"GCAGGTTCATCTGCCTT (sugars e3 d10 e4, PS)",54%,82%,,
"GCAGTCTGCCTGATTCCCTT (sugars e5 d10 e5, PS)",60%,93%,,
"GCATAGCTGAGCAAATCCAT (sugars e5 d10 e5, PS)",69%,85%,,
"GCATGCTTCCTCCCACTTCA (sugars e5 d10 e5, PS)",84%,76%,,
"GCCAATGCCTAGGTCAC (sugars e3 d10 e4, PS)",85% and 93%,79% and 93%,,
"GCCACTCCCAGTACAAGGAA (sugars e5 d10 e5, PS)",,,0,
"GCCAGGTAAGGCCGTATGCC (sugars e3 d14 e3, PS)",,,61,
"GCCAGGTGCTCTCATTTCTT (sugars e5 d10 e5, PS)",63%,91%,,
"GCGATTCACTGAGGACCTCA (sugars e5 d10 e5, PS)",74%,86%,,
"GCGCCACACAGCCCAGTTTC (sugars e5 d10 e5, PS)",,,31,
"GCGCGATTCACTGAGGACCT (sugars e5 d10 e5, PS)",75%,76%,,
"GCTCACTTCTGTGGCCTCTG (sugars e5 d10 e5, PS)",,,41,
"GCTCAGCACTGACATGGTAA (sugars e5 d10 e5, PS)",79% and 66%,96% and 92%,,
"GCTCTCATTTCTTATCTTCA (sugars e5 d10 e5, PS)",82% and 80%,95% and 93%,,
"GCTGGTGTTCTACAAGCTGC (sugars e5 d10 e5, PS)",79% and 81% and 83%,90% and 86% and 88%,,
"GCTTCACCAGGGCCTCCATG (sugars e5 d10 e5, PS)",34%,57%,31,80
"GCTTGGAGTAGGGCACCAGC (sugars e5 d10 e5, PS)",,,45,
"GGACAGGAGGGTCACACACA (sugars e5 d10 e5, PS)",,,45,
"GGACCCACTGGAGCACTGAG (sugars e5 d10 e5, PS)",14%,47%,84,73
"GGAGCAGGCCTCGGGAAGCA (sugars e5 d10 e5, PS)",38%,85%,,
"GGAGCTCAGAGACTCAGCCG (sugars e2 d13 e5, PS)",,,65,
"GGAGTAGGGCACCAGCCCCC (sugars e5 d10 e5, PS)",,,17,

Sequence,"target mRNA inhibition (HepG2, 2.5 µM)","target mRNA inhibition (HepG2, 10 µM)","target mRNA inhibition (HepG2, 0.12 µM) [%]","target mRNA inhibition (HepG2, 20 µM) [%]"
"GGATACTCAGAAGAGCAGTG (sugars e5 d10 e5, PS)",60%,80%,,
"GGATAGTCGATTTACCAGAA (sugars e5 d10 e5, PS)",69%,85%,,
"GGCAAAGTAACATACCTGCT (sugars e5 d10 e5, PS)",72% and 91%,94%,,
"GGCACAGAAAAGTGAGGCTT (sugars e5 d10 e5, PS)",,,32,
"GGCACCTGTTACTACATGTC (sugars e5 d10 e5, PS)",80% and 75%,94% and 89%,,
"GGCAGATCTTCATTACATGA (sugars e5 d10 e5, PS)",75% and 70%,80% and 78%,,
"GGCATGCTTCCTCCCAC (sugars e3 d10 e4, PS)",56%,56%,,
"GGCATGGAGCTCAGAGACTC (sugars e3 d14 e3, PS)",,,74,
"GGGAAAGGTCTTCTCCAGCT (sugars e5 d10 e5, PS)",86% and 85%,92% and 91%,,
"GGGACTCAGTGTCCTCCTTA (sugars e5 d10 e5, PS)",69%,78%,,
"GGGTTCTTGTCCTGGTCCCA (sugars e5 d10 e5, PS)",79% and 66%,90%,,
"GGTCAGCAGGTTGTGTGTCT (sugars e2 d13 e5, PS)",,,45,
"GGTCTGGGAACAGCAGCATC (sugars e5 d10 e5, PS)",59%,79%,,
"GGTGAATAGCTATGTCTAAA (sugars e5 d10 e5, PS)",70% and 55%,91% and 85%,,
"GGTGCTCTCATTTCTTATCT (sugars e5 d10 e5, PS)",56% and 59%,82% and 92%,,
"GGTGGGAAACTTGGAAACTT (sugars e5 d10 e5, PS)",,,37,
"GGTGGTCAGCAGGTTGTGTG (sugars e5 d10 e5, PS)",,,29,
"GGTTATTGCAACCACTAGGA (sugars e5 d10 e5, PS)",80%,91%,,
"GTAAGCCTCGGTGTCCT (sugars e3 d10 e4, PS)",62%,79%,,
"GTAAGGGTATTCTGCTCATA (sugars e5 d10 e5, PS)",,86% and 95%,,
"GTACAAGTTTCTCCACCTAT (sugars e5 d10 e5, PS)",68% and 88%,79% and 87%,,
"GTAGACTCTCCATGAGCCTA (sugars e5 d10 e5, PS)",49%,88%,,

Sequence,"target mRNA inhibition (HepG2, 2.5 µM)","target mRNA inhibition (HepG2, 10 µM)","target mRNA inhibition (HepG2, 0.12 µM) [%]","target mRNA inhibition (HepG2, 20 µM) [%]"
"GTATCCAAAGATATAGTTCC (sugars e5 d10 e5, PS)",,,8,
"GTCACTGACTCACAACAGCA (sugars e5 d10 e5, PS)",58%,92%,,
"GTCAGCAGGTTGTGTGTCTT (sugars e2 d13 e5, PS)",,,58,
"GTCAGCAGGTTGTGTGTCTT (sugars e3 d14 e3, PS)",,,61,
"GTCCTCCTTAGCTTTAATCC (sugars e5 d10 e5, PS)",62%,85%,,
"GTCTCTCATAATTGCCAGTT (sugars e5 d10 e5, PS)",53% and 66%,83% and 87%,,
"GTCTTCACCAGCTGGATGGG (sugars e5 d10 e5, PS)",,,42,
"GTGCAAGAGTTACCTCCTCC (sugars e5 d10 e5, PS)",80% and 78%,94% and 92%,,
"GTGCAGAATATGTACATGAG (sugars e5 d10 e5, PS)",,,43,
"GTGGTCAGCAGGTTGTGTGT (sugars e5 d10 e5, PS)",0%,,44,
"GTGTCGGAGGAGAAGAGGCC (sugars e5 d10 e5, PS)",,,52,
"GTGTCTTCACCAGCTGGATG (sugars e5 d10 e5, PS)",16%,,49,
"GTTCTTCCAACCAGTGTTTG (sugars e5 d10 e5, PS)",47%,81%,,
"GTTGCCATCATACTAGACTA (sugars e5 d10 e5, PS)",65%,85%,,
"TAACCACAGCGATAATCACA (sugars e5 d10 e5, PS)",60%,93%,,
"TAAGGAAAACTTAGGCATGC (sugars e5 d10 e5, PS)",75%,69%,,
"TAAGGGTATTCTGCTCATAA (sugars e5 d10 e5, PS)",63%,93%,,
"TACCTGCTATGCTGAGAGCA (sugars e5 d10 e5, PS)",65%,80%,,
"TACCTTATCTTTGTCCACAT (sugars e5 d10 e5, PS)",,78% and 91%,,
"TAGAGGTTTACTGCATAGCT (sugars e5 d10 e5, PS)",84% and 72%,85% and 92%,,
"TAGCATTGCCACTCCCATTC (sugars e2 d13 e5, PS)",,,60,
"TAGCCAGGTAAGGCCGTATG (sugars e2 d13 e5, PS)",,,51,

Sequence,"target mRNA inhibition (HepG2, 2.5 µM)","target mRNA inhibition (HepG2, 10 µM)","target mRNA inhibition (HepG2, 0.12 µM) [%]","target mRNA inhibition (HepG2, 20 µM) [%]"
"TAGGATGCTTAACTTCTGCT (sugars e5 d10 e5, PS)",58%,85%,,
"TATTTGAAGATAAAGTCAGA (sugars e5 d10 e5, PS)",,,0,
"TCACATGCCTGAGGGCAGCA (sugars e5 d10 e5, PS)",66%,86%,,
"TCACCAGGGCCTCCATGTAC (sugars e2 d13 e5, PS)",,,3,
"TCACCTGCTTGTACACTTCA (sugars e5 d10 e5, PS)",,,40,
"TCAGAGACTCAGCCGCACCC (sugars e2 d13 e5, PS)",,,56,
"TCAGAGACTCAGCCGCACCC (sugars e3 d14 e3, PS)",,,41,
"TCAGCAGGTTGTGTGTCTTC (sugars e3 d14 e3, PS)",,,54,
"TCAGCCTAGAGGCCCTGGAC (sugars e5 d10 e5, PS)",,,26,
"TCCAATGCACCTTGTATTAA (sugars e5 d10 e5, PS)",72% and 52%,92% and 83%,,
"TCCACCTAGCTCATGGTGGC (sugars e5 d10 e5, PS)",,,21,
"TCCCATTCTTTGAAAGCAAA (sugars e5 d10 e5, PS)",,,31,
"TCCTGGTCCCAGTACTTTCT (sugars e5 d10 e5, PS)",71% and 73%,91% and 92%,,
"TCTCATGCTAGGTCCTGTGC (sugars e5 d10 e5, PS)",89% and 74%,90% and 88%,,
"TCTCCTCTGCTTCTTGGGCA (sugars e5 d10 e5, PS)",69% and 67%,85% and 82%,,
"TCTCGAATATCCCTAATAAC (sugars e5 d10 e5, PS)",34%,87%,,
"TCTGGAACTTCTTCTGGACC (sugars e5 d10 e5, PS)",,,43,
"TCTTCACCAGCTGGATGGGA (sugars e5 d10 e5, PS)",,,50,
"TCTTGCCAGGCATGGAGCTC (sugars e5 d10 e5, PS)",,,47,
"TCTTTGCTTGCCAGGTGAGC (sugars e5 d10 e5, PS)",67%,71%,,
"TGACCAGGAAGGCCACACCT (sugars e5 d10 e5, PS)",,,15,
